What was measured:
[1] = system: PC3-Luc2-PSMA+/ANXA1-positive cells; experiment: Cytotoxicity (Cell Counting Kit-8) to ANXA1-positive PC3 cells; type: cell-based, human
Protocol: (§1) The cell viability was analyzed by Cell Counting Kit-8 (Dojindo), and the IC50 value was calculated (FIG. 40).

[2] = system: PSMA-negative/ANXA1-negative human prostate cancer cells PC3 and PSMA-positive/ANXA1-positive PC3 cells; experiment: Anticancer treatment in back subcutaneous PC3 tumor model; type: in vivo, nude mice
Protocol: 1 × 10^6 PSMA-negative/ANXA1-negative human prostate cancer cells PC3 were inoculated into the left back of nude mice, and 1 × 10^6 PSMA-positive/ANXA1-positive PC3 cells were inoculated into the right back of the nude mice. […] As control, 0.919 mg/kg (22.975 ng vcMMAE/25 g mouse) of vcMMAE alone (molecular weight: 1316.6) was administered. The tumor size was monitored by measuring the average radiance (photon/sec/cm^2/sr) of the luciferase-expressing tumor after injection of luciferin (150 mg/mouse) using an IVIS system. After three courses of administration, the tumor size, body weight, pathological test, blood biochemical test, and blood cell count test values were evaluated (FIG. 41).

[3] = system: PSMA-negative/ANXA1-negative human prostate cancer cells PC3 and PSMA-positive/ANXA1-positive PC3 cells; experiment: Anticancer treatment in femur subcutaneous PC3 tumor model; type: in vivo, nude mice; details: vcMMAE-dhp7 1.25 mg/kg or vcMMAE 0.919 mg/kg intraperitoneal every four days, three courses; femur tumors
Protocol: As control, 0.919 mg/kg (22.975 ng vcMMAE/25 g mouse) of vcMMAE alone (molecular weight: 1316.6) was administered. The tumor size was monitored by measuring the average radiance (photon/sec/cm^2/sr) of the luciferase-expressing tumor after injection of luciferin (150 mg/mouse using an IVIS system. After three courses of administration, the average radiance of the luciferase-expressing tumor and the body weight were evaluated (FIG. 46).

[4] = system: PSMA-positive/ANXA1-positive PC3 cells; experiment: Anticancer treatment in femur PC3 tumor model at same vcMMAE dose; type: in vivo, mice; details: four courses
Protocol: 2 × 10^6 PSMA-positive/ANXA1-positive PC3 cells were inoculated into the right femur. […] As control, 1.25 mg/kg (31.25 ng vcMMAE/25 g mouse) of vcMMAE alone (molecular weight: 1316.6) was administered. The tumor size was monitored by measuring the average radiance (photon/sec/cm^2/sr) of the luciferase-expressing tumor after injection of luciferin (150 mg/mouse using an IVIS system. After four courses of administration, the average radiance of the luciferase-expressing tumor and the body weight were evaluated (FIG. 48).

[5] = system: PC3-Luc2-PSMA-/ANXA1-negative cells; experiment: Cytotoxicity (Cell Counting Kit-8) to ANXA1-negative PC3 cells; type: cell-based, human; details: 37°C for 24 hours; cell viability by Cell Counting Kit-8
Protocol: as §1

c(vcMMAE)-hpnevrs [vcMMAE-dhp7]
IC50 value ([1]; 37°C for 24 hours, cell viability by Cell Counting Kit-8): 122.7 ng
in-vitro sensitivity of Anxa1-positive cells relative to ANXA1-negative cells ([1]; PC3 cells): twice
average radiance of luciferase-expressing tumor ([2]; 1.25 mg/kg intraperitoneal every four days, three courses, back subcutaneous tumors): almost completely reduced
appearance and HE staining of resected tumors ([2]; in contrast to vcMMAE alone administration group): marked necrotic change and fewer residual tumors were observed
CD31-positive vessel density in the residual tumors ([2]; versus vcMMAE treatment group): statistically significantly reduced
average radiance of luciferase-expressing tumor [3]: reduced similarly over the three courses of treatment
resected tumor weights compared with vcMMAE treatment group [4]: markedly smaller
average radiance of luciferase-expressing tumor ([4]; vcMMAE-dhp7 2.14 mg/kg or vcMMAE 1.25 mg/kg intraperitoneal every four days): markedly reduced
IC50 value [5]: 204.5 ng

— EP4772523A1, “D-PEPTIDE AND USE THEREOF” (HIROSAKI UNIVERSITY, priority 2023, dated 2025)
